# Tests used:
# Dpa = target: T1, Dpa (Acinetobacter baumannii, UniProt V5VBK4); experiment: X-ray crystal structure; format: binding; details: crystallised with 0.1 mM acetyl-CoA, pH 8.5
# T1 construct: gene ABR2091_2278; his-tagged Dpa from pKK223.3, expressed in E. coli DJ624 delta-ara; C-terminal beta-strand swapped dimer
# SpeG = target: T2, SpeG (Escherichia coli, UniProt P0A951); experiment: DTNB acetylation assay; format: biochemical; details: acetyl-CoA co-substrate 0.5 mM; substrate 5 mM; pH 8.0; 30 °C
# T2 construct: his-tagged SpeG from pKK223.3, expressed in E. coli DJ624 delta-ara
# T2 sequence (P0A951 2-186): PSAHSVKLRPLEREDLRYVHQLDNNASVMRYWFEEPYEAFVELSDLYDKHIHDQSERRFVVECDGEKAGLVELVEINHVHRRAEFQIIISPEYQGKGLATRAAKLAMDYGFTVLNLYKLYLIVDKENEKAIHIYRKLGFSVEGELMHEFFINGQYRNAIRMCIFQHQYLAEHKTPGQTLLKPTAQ
# [1] = target: his-Dpa (A. baumannii diaminopropane acetyltransferase Dpa, wild type) (Acinetobacter baumannii); experiment: crystal structure; his-Dpa at 10 mg/ml crystallised with 0.1 mM acetyl-CoA; 0.2 M sodium acetate, 0.1 M Tris-HCl pH 8.5, 30% PEG 4000, 20 °C
# [2] = target: his-Dpa (A. baumannii diaminopropane acetyltransferase Dpa, wild type) (Acinetobacter baumannii); experiment: SEC; analytic SEC on Superdex75 increase, 50 mM Tris-HCl pH 8, 250 mM NaCl; 500 μL of 20 μM protein injected; where indicated pre-incubated with 5-fold molar excess of acCoA and/or 1,3-DAP
# [3] = target: his-Dpa_(Y128F) (catalytically impaired Dpa) (Acinetobacter baumannii); experiment: crystal structure
molecule,measurement,setting,value
CC(=O)SCCNC(=O)CCNC(=O)[C@H](O)C(C)(C)COP(=O)(O)OP(=O)(O)OC[C@H]1O[C@@H](n2cnc3c(N)ncnc32)[C@H](O)[C@@H]1OP(=O)(O)O [acetyl-CoA],X-ray crystal structure,Dpa,we determined the structure of Dpa bound to acCoA
NCCCCNCCCN [spermidine],DTNB acetylation assay,SpeG,SpeG acetylated the long polyamines Spermine and Spermidine
NCCCNCCCCNCCCN [spermine],DTNB acetylation assay,SpeG,SpeG acetylated the long polyamines Spermine and Spermidine
"his-Dpa (A. baumannii diaminopropane acetyltransferase Dpa, wild type) (enzyme)",stoichiometry N,[1],2
same,stoichiometry N,[2],2
his-Dpa_(Y128F) (catalytically impaired Dpa) (enzyme),stoichiometry N,[3],2
